Test results reported in ChEMBL document CHEMBL1201862, “PubChem BioAssay data set” (2004).
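These data come from cells grown in 96-well plates and exposed to compound for 48 hours at five concentrations. GI50: concentration for 50% inhibition of growth.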 Activity calls are given as the source filed them. Rule as the data show it: active = GI50 up to about 1.1 µM and inactive = higher. Where a SMILES comes first, the peptide text is derived from it. Peptide text beside a SMILES is read from it. [ ]: non-standard residue; d: D form. The star is where a group is joined. ξ: configuration not given here. ξD = NC(CC(=O)O)C(=O)O; Ac3c = NC1(C(=O)O)CC1; Boc = CC(C)(C)OC(=O)*; OBn = c1ccc(CO*)cc1

Columns and labels:
Assay in all cases: growth of human tumour cells (NCI), 48 h
786-0 = test system: 786-0
BT-549 = test system: BT-549
CCRF-CEM = test system: CCRF-CEM
EKVX = test system: EKVX
HCT-116 = test system: HCT-116
HOP-92 = test system: HOP-92
IGROV-1 = test system: IGROV-1
MCF7 = test system: MCF7
NCI-H23 = test system: NCI-H23
NCI-H460 = test system: NCI-H460
NCI-H522 = test system: NCI-H522
NCI/ADR-RES = test system: NCI/ADR-RES
OVCAR-5 = test system: OVCAR-5
RPMI-8226 = test system: RPMI-8226
SF-268 = test system: SF-268
SF-295 = test system: SF-295
SK-MEL-5 = test system: SK-MEL-5
SNB-75 = test system: SNB-75
SW-620 = test system: SW-620
UACC-257 = test system: UACC-257

Measured: GI50

NCCCc1c(-c2ccccc2)[nH]c(N)nc1=O
inactive: 786-0 > 100 µM | BT-549 > 100 µM | CCRF-CEM > 100 µM | EKVX > 100 µM | HCT-116 > 100 µM | HOP-92 > 100 µM | IGROV-1 > 100 µM | MCF7 > 100 µM | NCI-H23 > 100 µM | NCI-H460 > 100 µM | NCI-H522 > 100 µM | NCI/ADR-RES > 100 µM | OVCAR-5 > 100 µM | RPMI-8226 > 100 µM | SF-268 > 100 µM | SF-295 > 100 µM | SK-MEL-5 > 100 µM | SNB-75 > 100 µM | SW-620 > 100 µM | UACC-257 > 100 µM

CC(=O)NC(CS)C(=O)NC(CO)C(=O)NC(CO)C(=O)NC(Cc1c[nH]c2ccccc12)C(=O)N1CCCC1C(=O)NC(CO)C(=O)NC(Cc1c[nH]c2ccccc12)C(=O)NC(Cc1c[nH]cn1)C(=O)NC(CO)C(=O)NC(Cc1c[nH]c2ccccc12)C(=O)NCC(=O)NCC(=O)NC(C)C(=O)NC(CCC(N)=O)C(=O)NC(CCCCN)C(=O)NC(C)C(=O)NC(CCCNC(=N)N)C(=O)NC(CCCCN)C(N)=O (stereo not given) (Ac-CSSWPSWHSWGGAQKARK-NH2; configuration not given here)
inactive: 786-0 10.1 µM | BT-549 14.4 µM | CCRF-CEM 17.7 µM | EKVX 28.3 µM | HCT-116 34 µM | HOP-92 > 50 µM | IGROV-1 > 50 µM | MCF7 18.9 µM | NCI-H23 14.8 µM | NCI-H460 12.4 µM | NCI-H522 20.5 µM | NCI/ADR-RES > 50 µM | OVCAR-5 > 50 µM | RPMI-8226 39 µM | SF-268 16.7 µM | SF-295 > 50 µM | SK-MEL-5 11 µM | SNB-75 13.9 µM | SW-620 23.4 µM | UACC-257 10 µM

COC(=O)C1(NC(=O)C(CC(=O)OCc2ccccc2)NC(=O)OC(C)(C)C)CC1 (stereo not given) (Boc-[ξD](OBn)-[Ac3c]-OMe)
inactive: 786-0 > 100 µM | BT-549 > 100 µM | CCRF-CEM > 100 µM | EKVX > 100 µM | HCT-116 > 100 µM | HOP-92 > 100 µM | IGROV-1 > 100 µM | MCF7 > 100 µM | NCI-H23 > 100 µM | NCI-H460 > 100 µM | NCI-H522 > 100 µM | NCI/ADR-RES > 100 µM | OVCAR-5 > 100 µM | RPMI-8226 > 100 µM | SF-268 > 100 µM | SF-295 > 100 µM | SK-MEL-5 > 100 µM | SNB-75 > 100 µM | SW-620 > 100 µM | UACC-257 > 100 µM
